One data set can be described thus: in vitro. As to the method: Pooled mouse plasma was prepared and stored at −80° C. prior to use. 396 μL mouse plasma was incubated at 37° C. for 5 minutes in 1.5 mL microcentrifuge tubes. 4 μL of 100 μM test or control compound/peptide was added to each tube and incubated for 0.5, 15, 30, 60, 120, or 240 minutes. An aliquot of 40 μL of each reaction was stopped by the addition of 4 volume of cold acetonitrile containing 200 ng/mL of Setmelanotide as an internal standard (IS). The incubation solution was centrifuged at 3500 rpm for 10 minutes to precipitate protein. The supernatant was used for LC/MS/MS analysis. The natural log peak area ratio (compound peak […] area/internal standard peak area) was plotted against time and the gradient of the line determined.

A further data set concerns the target human MC4R (Homo sapiens, UniProt P32245). Briefly: Intracellular cAMP levels in live cells, MC3R selectivity relative to MC4R. Format: cell-based. The note with it: cAMP assays in human MC3R and human MC4R stable cell lines.

Non-standard residues stand in square brackets, D forms with d. Residues, ends and D or L forms follow the SMILES beside them. Bip = N[C@@H](Cc1ccc(-c2ccccc2)cc1)C(=O)O; Phe(4-Br) = N[C@@H](Cc1ccc(Br)cc1)C(=O)O; Phe(4-I) = N[C@@H](Cc1ccc(I)cc1)C(=O)O; NMeY = CN[C@@H](Cc1ccc(O)cc1)C(=O)O; Nle = CCCC[C@H](N)C(=O)O

Chain of human MC4R (P32245 whole entry): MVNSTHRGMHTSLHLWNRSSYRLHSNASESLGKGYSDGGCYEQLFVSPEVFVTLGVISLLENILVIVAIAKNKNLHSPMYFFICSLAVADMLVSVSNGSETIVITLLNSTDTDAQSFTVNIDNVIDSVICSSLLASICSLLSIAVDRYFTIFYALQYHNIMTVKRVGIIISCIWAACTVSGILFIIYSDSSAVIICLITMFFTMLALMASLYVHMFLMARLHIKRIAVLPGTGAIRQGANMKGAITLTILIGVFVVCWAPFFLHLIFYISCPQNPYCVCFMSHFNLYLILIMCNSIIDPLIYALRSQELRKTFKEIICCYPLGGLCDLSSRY

For orientation: half-life means the time in which the quantity being followed falls by half. Lower therefore signals rapid decline. On to `CCCC[C@H](NC(=O)[C@@H](NC(=O)[C@@H](N)Cc1ccc(O)cc1)C(C)C)C(=O)N[C@H](C)C(=O)N[C@@H](Cc1c[nH]cn1)C(=O)N[C@@H](Cc1ccccc1)C(=O)N[C@@H](CCCNC(=N)N)C(=O)N[C@H](Cc1c[nH]c2ccccc12)C(=O)N[C@@H](CC(=O)O)C(N)=O` [CTX-1108, Tyr-Val-Nle-D-Ala-His-Phe-Arg-D-Trp-Asp] (H-YV[Nle][dA]HFR[dW]D-NH2), for which, in the data set “in vitro” (mouse, plasma), the half-life at 1 µM was found to be 1.32 min; the fraction remaining at 5 min, 1 µM is 7.21%; the fraction remaining at 0.25 h, 1 µM was found to be 0.33%; the share remaining at 0.5 h, 1 µM was 0.04%. Besides, the share remaining at 1 h, 1 µM in “in vitro” (mouse, plasma) was 0.01%. The same compound gave a Mouse Plasma Stability, time point 0 min in “in vitro” (pooled mouse plasma, 37° C.) of 100%. Besides, the “MC3R selectivity (relative to MC4R)” value at human MC4R was found to be 79.

Regarding `CCN(CC)CCOC(=O)c1ccc(N)cc1` [Procaine, reference compound], the half-life at 1 µM in “in vitro” (mouse, pooled mouse plasma) was found to be 3.81 min. In “in vitro” (pooled mouse plasma, 37° C.), this compound returned a Mouse Plasma Stability, time point 0 min of 100%; a Mouse Plasma Stability, time point 5 min of 40.3%; a Mouse Plasma Stability, time point 30 min of 2.15%; a Mouse Plasma Stability, time point 60 min of 0.44%. Further, the “Mouse Plasma Stability, time point 15 min” value in “in vitro” (pooled mouse plasma, 37° C., in % (unit assumed)) was 8.80.

On to `CCCC[C@H](NC(=O)[C@@H](NC(=O)[C@@H](N)Cc1ccc(O)cc1)C(C)C)C(=O)N[C@H](C)C(=O)N[C@@H](Cc1c[nH]cn1)C(=O)N[C@@H](Cc1ccc(Br)cc1)C(=O)N[C@@H](CCCNC(=N)N)C(=O)N[C@H](Cc1c[nH]c2ccccc12)C(=O)N[C@@H](CC(=O)O)C(=O)N[C@@H](CCCNC(=N)N)C(=O)N[C@@H](Cc1ccccc1)C(=O)NCC(=O)O` [CTX-2120, Tyr-Val-Nle-D-Ala-His-Phe(4-Br)-Arg-D-Trp-Asp-Arg-Phe-Gly] (H-YV[Nle][dA]H[Phe(4-Br)]R[dW]DRFG-OH), for which, in the data set “in vitro” (mouse, plasma), the half-life at 1 µM was 2.01 min; the fraction remaining at 5 min, 1 µM worked out at 17.9%; the fraction remaining at 0.25 h, 1 µM is 0.78%; the share remaining at 0.5 h, 1 µM is 0.13%. In addition, the amount remaining at 1 h, 1 µM in “in vitro” (mouse, plasma) is 0.09%. This compound returned a Mouse Plasma Stability, time point 0 min in the data set “in vitro” (pooled mouse plasma, 37° C.) of 100%. The “MC3R selectivity (relative to MC4R)” value on human MC4R was 173.

As to `CCCC[C@H](NC(=O)[C@@H](NC(=O)[C@H](Cc1ccc(O)cc1)NC)C(C)C)C(=O)N[C@H](C)C(=O)N[C@@H](Cc1c[nH]cn1)C(=O)N[C@@H](Cc1ccccc1)C(=O)N[C@@H](CCCNC(=N)N)C(=O)N[C@H](Cc1c[nH]c2ccccc12)C(=O)N[C@@H](CC(=O)O)C(N)=O` [CTX-1141, NMe-Tyr-Val-Nle-D-Ala-His-Phe-Arg-D-Trp-Asp] (H-[NMeY]V[Nle][dA]HFR[dW]D-NH2), in “in vitro” (mouse, plasma), the half-life at 1 µM is above 240 min; the share remaining at 5 min, 1 µM was 106%; the fraction remaining at 0.25 h, 1 µM worked out at 118%; the fraction remaining at 0.5 h, 1 µM was 95%. Further, in the data set “in vitro” (mouse, plasma), the amount remaining at 1 h, 1 µM was determined as 91.8%; the share remaining at 2 h, 1 µM is 108%; the amount remaining at 4 h, 1 µM worked out at 63.9%. This compound also registered a Mouse Plasma Stability, time point 0 min in “in vitro” (pooled mouse plasma, 37° C.) of 100%. In addition, the “MC3R selectivity (relative to MC4R)” value at human MC4R came to 55.

`CCN(CC)CCNC(=O)c1ccc(N)cc1` [Procainamide, reference compound]: in “in vitro” (mouse, 1 µM), the “Mouse Plasma Stability, time point 0 min” value is 100.00; the “Mouse Plasma Stability, time point 5 min” value turned out to be 101.53; the “Mouse Plasma Stability, time point 15 min” value turned out to be 109.16; the “Mouse Plasma Stability, time point 30 min” value came to 103.05. Besides, the “Mouse Plasma Stability, time point 60 min” value in “in vitro” (mouse, 1 µM) amounted to 104.43. The “Mouse Plasma Stability, time point 120 min” value in “in vitro” (mouse, 120 min, 1 µM) is listed as 110.61. Also, the “Mouse Plasma Stability, time point 240 min” value in “in vitro” (mouse, 240 min, 1 µM) is 108.17.

On to `CCCC[C@H](NC(=O)[C@@H](NC(=O)[C@@H](N)Cc1ccc(O)cc1)C(C)C)C(=O)N[C@H](C)C(=O)N[C@@H](Cc1c[nH]cn1)C(=O)N[C@@H](Cc1ccccc1)C(=O)N[C@@H](CCCNC(=N)N)C(=O)N[C@H](Cc1c[nH]c2ccccc12)C(=O)N[C@@H](CC(=O)O)C(=O)N[C@@H](CCCNC(=N)N)C(=O)N[C@@H](Cc1ccccc1)C(=O)NCC(=O)O` [CTX-1103, Tyr-Val-Nle-D-Ala-His-Phe-Arg-D-Trp-Asp-Arg-Phe-Gly] (H-YV[Nle][dA]HFR[dW]DRFG-OH), for which, in “in vitro” (mouse, plasma), the half-life at 1 µM came to 1.46 min; the fraction remaining at 5 min, 1 µM came to 9.3%; the amount remaining at 0.25 h, 1 µM turned out to be 0.21%; the amount remaining at 0.5 h, 1 µM stood at 0.03%. Also, the amount remaining at 1 h, 1 µM in “in vitro” (mouse, plasma) came out at 0.02%. Besides, in “in vitro” (pooled mouse plasma, 37° C.), the Mouse Plasma Stability, time point 0 min is 100%. Also, on human MC4R, the “MC3R selectivity (relative to MC4R)” value came to 229.

Take `CC(C)[C@H](NC(=O)[C@@H](N)Cc1ccc(O)cc1)C(=O)N[C@@H](CCC(=O)O)C(=O)NCC(=O)N[C@@H](Cc1c[nH]cn1)C(=O)N[C@@H](Cc1ccccc1)C(=O)N[C@@H](CCCNC(=N)N)C(=O)N[C@H](Cc1c[nH]c2ccccc12)C(=O)N[C@@H](CC(=O)O)C(=O)N[C@@H](CCCNC(=N)N)C(=O)N[C@@H](Cc1ccccc1)C(=O)NCC(N)=O` [CTX-1105, Tyr-Val-Glu-Gly-His-Phe-Arg-D-Trp-Asp-Arg-Phe-Gly] (H-YVEGHFR[dW]DRFG-NH2): in the data set “in vitro” (mouse, plasma), the half-life at 1 µM worked out at 2.38 min; the amount remaining at 5 min, 1 µM came to 23.4%; the fraction remaining at 0.25 h, 1 µM came to 1.51%; the amount remaining at 0.5 h, 1 µM was found to be 0.3%. Further, in the data set “in vitro” (mouse, plasma), the fraction remaining at 1 h, 1 µM was 0.27% and the fraction remaining at 2 h, 1 µM turned out to be 0.12%. For the same compound, the Mouse Plasma Stability, time point 0 min in “in vitro” (pooled mouse plasma, 37° C.) worked out at 100%. Also, the “MC3R selectivity (relative to MC4R)” value on human MC4R stood at 500.

Turning to `CCCC[C@H](NC(=O)[C@@H](NC(=O)[C@@H](N)Cc1ccc(O)cc1)C(C)C)C(=O)N[C@@H](C)C(=O)N[C@@H](Cc1c[nH]cn1)C(=O)N[C@@H](Cc1ccccc1)C(=O)N[C@@H](CCCNC(=N)N)C(=O)N[C@H](Cc1c[nH]c2ccccc12)C(=O)N[C@@H](CC(=O)O)C(=O)N[C@@H](CCCNC(=N)N)C(=O)N[C@@H](Cc1ccccc1)C(=O)NCC(=O)O` [CTX-1133, Tyr-Val-Nle-Ala-His-Phe-Arg-D-Trp-Asp-Arg-Phe-Gly] (H-YV[Nle]AHFR[dW]DRFG-OH), the “MC3R selectivity (relative to MC4R)” value on human MC4R is given as 7.4.

For `CCCC[C@H](NC(C)=O)C(=O)N[C@H](C)C(=O)N[C@@H](CCCNC(=N)N)C(=O)N[C@@H](Cc1ccc(I)cc1)C(=O)N[C@@H](CCCNC(=N)N)C(=O)N[C@H](Cc1c[nH]c2ccccc12)C(=O)N[C@@H](CC(=O)O)C(=O)N[C@@H](CCCNC(=N)N)C(=O)N[C@@H](Cc1ccccc1)C(=O)NCC(=O)O` [CTX-1197, Nle-D-Ala-Arg-Phe(4-I)-Arg-D-Trp-Asp-Arg-Phe-Gly] (Ac-[Nle][dA]R[Phe(4-I)]R[dW]DRFG-OH), at human MC4R, the “MC3R selectivity (relative to MC4R)” value came out at 250.

Take `CCCC[C@H](NC(C)=O)C(=O)N[C@H](C)C(=O)N[C@@H](Cc1c[nH]cn1)C(=O)N[C@@H](Cc1ccc(-c2ccccc2)cc1)C(=O)N[C@@H](CCCNC(=N)N)C(=O)N[C@H](Cc1c[nH]c2ccccc12)C(=O)N[C@@H](CC(=O)O)C(=O)N[C@@H](CCCNC(=N)N)C(=O)N[C@@H](Cc1ccccc1)C(=O)NCC(N)=O` [CTX-1168, Nle-D-Ala-His-Bip-Arg-D-Trp-Asp-Arg-Phe-Gly] (Ac-[Nle][dA]H[Bip]R[dW]DRFG-NH2): at human MC4R, the “MC3R selectivity (relative to MC4R)” value worked out at 485.

For `CCCC[C@H](NC(C)=O)C(=O)N[C@H](C)C(=O)N[C@@H](Cc1c[nH]cn1)C(=O)N[C@@H](Cc1ccccc1)C(=O)N[C@@H](CCCNC(=N)N)C(=O)N[C@H](Cc1c[nH]c2ccccc12)C(=O)N[C@@H](CCCCN)C(=O)N[C@@H](CCCNC(=N)N)C(=O)N[C@@H](Cc1ccccc1)C(=O)NCC(=O)O` [CTX-1533, Nle-D-Ala-His-Phe-Arg-D-Trp-Lys-Arg-Phe-Gly] (Ac-[Nle][dA]HFR[dW]KRFG-OH), at human MC4R, the “MC3R selectivity (relative to MC4R)” value amounted to 314.

As for `CCCC[C@H](NC(C)=O)C(=O)N[C@H](C)C(=O)N[C@@H](Cc1c[nH]cn1)C(=O)N[C@@H](Cc1ccccc1)C(=O)N[C@@H](CCCNC(=N)N)C(=O)N[C@H](Cc1c[nH]c2ccccc12)C(N)=O` [CTX-1539, Nle-D-Ala-His-Phe-Arg-D-Trp] (Ac-[Nle][dA]HFR[dW]-NH2), the “MC3R selectivity (relative to MC4R)” value at human MC4R came to 16.

Consider `CCCC[C@H](NC(=O)[C@@H](NC(=O)[C@H](N)Cc1ccc(O)cc1)C(C)C)C(=O)N[C@H](C)C(=O)N[C@@H](Cc1c[nH]cn1)C(=O)N[C@@H](Cc1ccccc1)C(=O)N[C@@H](CCCNC(=N)N)C(=O)N[C@H](Cc1c[nH]c2ccccc12)C(=O)N[C@@H](CC(=O)O)C(N)=O` [CTX-1142, D-Tyr-Val-Nle-D-Ala-His-Phe-Arg-D-Trp-Asp] (H-[dY]V[Nle][dA]HFR[dW]D-NH2), for which the “MC3R selectivity (relative to MC4R)” value on human MC4R was found to be 54.

The values above are taken from US20240287154A1, “MC3R AGONIST PEPTIDES” (The Regents of the University of Michigan, priority 2021, published 2024).
